# Square brackets hold non-standard residues; d marks the D form. Ends that are not written are not given here. pT = C[C@@H](OP(=O)(O)O)[C@H](N)C(=O)O; pS = N[C@@H](COP(=O)(O)O)C(=O)O
# Assays:
# [1] = Calcium phosphate binding by CPP and synthetic homologues and analogues; settings: for Vca: calcium bound per peptide; for VPi: inorganic phosphate bound per peptide; for Ca bound per molecule / Pi bound per molecule: maximal binding, 0.1% w/v peptide; for Ca/P: ratio of bound Ca to bound Pi
# Text: Casein phosphopeptides containing the Ser(P) cluster, i.e. the core sequence motif Ser(P)-Ser(P)-Ser(P)-Glu-Glu-(SEQ ID NO: 5), have a marked ability to stabilize calcium phosphate in solution. Solutions containing 0.1% w/v αs1(59-79) (SEQ ID NO: 1) at various pH, calcium and phosphate concentrations, but constant ionic strengths were used to characterize the peptide's interaction with calcium phosphate.
# The ion activity products for the various calcium phosphate phases [hydroxyapatite (HA); octacalcium phosphate (OCP); tricalcium phosphate (TCP); amorphous calcium phosphate (ACP); and dicalcium phosphate dihydrate (DCPD) were determined from the free calcium and phosphate concentrations at each pH using a computer program that calculates the ion activity coefficients through the use of the expanded Debye-Hückel equation and takes into account the ion pairs CaHPO4^o, CaH2PO4^+, CaPO4^−and CaOH^+ the dissociation of H3PO4 and H2O and the ionic strength. […] The peptide αs1(59-79) (SEQ ID NO: 1) binds to forming ACP clusters producing a metastable solution preventing ACP growth to the critical size required for nucleation and precipitation. The binding of αs1(59-79) (SEQ ID NO: 1) to ACP results in the formation of colloidal complexes with the unit formula [αs1(59-79) (SEQ ID NO: 1)(ACP)8]n where n is equal to or greater than one. It is likely that the predominant form is n=6 as αs1(59-79) (SEQ ID NO: 1) cross-linked with glutaraldehyde in the presence of ACP runs as a hexamer on polyacrylamide gel electrophoresis.
# The relationship between CPP structure and interaction with amorphous calcium phosphate was investigated using a series of synthetic peptide homologues and analogues indicated in Table 1.
# [2] = CPP and synthetic peptide binding to HA at 37° C.; settings: affinity constant
# Text: Similarly, we investigated the adsorption of the CPP and synthetic homologues and analogues onto HA (Table 2).
Vca [1],VPi [1],Ca bound per molecule [1],Pi bound per molecule [1],Ca/P [1],K [2],calcium phosphate binding [1],Substance
12 mol/mol,8 mol/mol,12 per molecule,8 per molecule,1.5,"10,370 ml/μmol",,AcGlu-Ser(P)-Ile-Ser(P)-Ser(P)-Ser(P)-Glu-GluNHMe [αs1(63-70)]
0 mol/mol,0 mol/mol,,,,,,AΣAE (A[pS]AE)
0 mol/mol,0 mol/mol,,,,,,AΣAΣAE (A[pS]A[pS]AE)
2 mol/mol,1 mol/mol,,,1.5,,,AΣAΣAΣAE (A[pS]A[pS]A[pS]AE)
6 mol/mol,4 mol/mol,,,1.5,,,AΣAΣAΣAΣAE (A[pS]A[pS]A[pS]A[pS]AE)
2 mol/mol,1 mol/mol,,,2.0,"6,579 ml/μmol",,DΣΣEE (D[pS][pS]EE)
0 mol/mol,0 mol/mol,,,,,,EAIAΣAEA (EAIA[pS]AEA)
12 mol/mol,8 mol/mol,,,1.5,,,EΣLΣΣΣEE [β(14-21)]
2 mol/mol,1 mol/mol,,,2.0,"1,513 ml/μmol",,EΣΣEE (E[pS][pS]EE)
0 mol/mol,0 mol/mol,,,,,did not bind calcium phosphate,Gln-Met-Glu-Ala-Glu (QMEAE) [αs1(59-63)]
0 mol/mol,0 mol/mol,,,,,,IAΣAEA (IA[pS]AEA)
0 mol/mol,0 mol/mol,,,,,did not bind calcium phosphate,IVPN[pS]VEQ [αs1(71-78)]
24 mol/mol,16 mol/mol,24 per molecule,16 per molecule,1.5,415 mL/µmol,,"QMEAEΣIΣΣΣEEIVPNΣVEQK (QMEAE[pS]I[pS][pS][pS]EEIVPN[pS]VEQK; listed as Bos sp.) [αs1(59-79), tryptic casein phosphopeptide]"
24 mol/mol,16 mol/mol,,,1.5,,,"RELEELNVPGEIVEΣLΣΣΣEESITR (RELEELNVPGEIVE[pS]L[pS][pS][pS]EESITR; listed as Bos sp.) [β(1-25), tryptic casein phosphopeptide]"
2 mol/mol,1 mol/mol,,,2.0,,,SΣΣEE (S[pS][pS]EE)
2 mol/mol,1 mol/mol,,,2.0,,,SθθEE (S[pT][pT]EE)
,,,,,"1,013 ml/μmol",,TθθEE (T[pT][pT]EE)
9 mol/mol,6 mol/mol,,,1.5,"12,845 ml/μmol",,[pS][pS][pS]EE [ΣΣΣEE]
,,,,,837 mL/µmol,,θTθEE ([pT]T[pT]EE)
,,,,,"1,799 ml/μmol",,θθTEE

# Reference: patent US7312193B2, “Calcium phosphopeptide complexes” (The University of Melbourne, priority 1997, dated 2007)
